Source: patent US8425447B2, “Selective cytopheresis devices and related methods thereof” (The Regents of the University of Michigan, priority 2007, dated 2013)

Test system: Leukocytes isolated from normal healthy individuals
Assay: In vitro release from leukocytes adhered to polysulfone membranes, with or without LPS
Assay type: cell-based, human
Procedure: Leukocytes were isolated from normal healthy individuals using established methods. The leukocytes (10^6 cells per well) were placed into 12-well tissue culture plates containing 14×14 mm squares of polysulfone membranes (Fresenius, Walnut Creek, Calif.) and allowed to adhere for 60 minutes at 37° C. in RPMI media. The media was removed, cells washed with PBS, and the removed supernatants were analyzed for cell release. RPMI media with citrate (Cai=0.25 mmol/L) or without citrate (Cai=0.89 mmol/L) was used to achieve the Cai levels described in Table 5 below. Each calcium condition also had media with or without lipopolysaccharide (LPS, 1 μg/mL) to activate the leukocytes.
The cells were exposed to these conditions for […] and removed from the media to assess release of lactoferrin (LF) and myeloperoxidase (MPO), proteins in exocytotic vesicles from neutrophils, and cytokines, IL-6 and IL-8, released from leukocytes. These compounds were assayed with commercially available Elisa kits (R & D Systems, Cell Sciences, and EMD BioSciences).

[1] = with LPS (1 μg/mL), citrate media Cai 0.25 mmol/L, 60 seconds
[2] = without LPS, citrate media Cai 0.25 mmol/L, 60 seconds

O=C(O)CC(O)(CC(=O)O)C(=O)O [Citrate]
increases in LF, MPO, IL-6, or IL-8 on LPS stimulation (citrate-containing media with low Cai, in contrast to normal Cai media): no increases
IL-6 release, Stimulated [1]: 2.9 pg/mL/10^6 cells
IL-8 release, Stimulated [1]: 19.4 ng/mL/10^6 cells
Lactoferrin release, Stimulated [1]: 187 ng/mL/10^6 cells
Myeloperoxidase release, Stimulated [1]: 270 ng/mL/10^6 cells
IL-6 release, Baseline [2]: 3.3 pg/mL/10^6 cells
IL-8 release, Baseline [2]: 25.8 ng/mL/10^6 cells
Lactoferrin release, Baseline [2]: 221 ng/mL/10^6 cells
Myeloperoxidase release, Baseline [2]: 268 ng/mL/10^6 cells
